≈ marks a conversion by molar mass, not a printed value. Where two headings read alike, the source gives them in different places.

Experimental findings from US8993566B2, “Quinoline compound composing 1,2,4-triazine-dione and use thereof” (Wuhan Shengyun Biopharma Co., Ltd., priority 2012, dated 2015) are described below.

Assay [1] concerns human nonsmall-cell lung cancer cell H460. As to the kind of experiment: In vitro anti-tumor cell activity (MTT), H460. The following applies: for IC50: Homo sapiens, read-out: H460 IC50. The assay is classed as cell-based. The procedure:
(§1) The digested cell solution was poured into a centrifuge tube, to which a culture media was added to stop the digestion. The centrifuge tube was centrifuged at 800 r/min for 10 min, the supernatant was removed gently and then 5 mL of the culture media was added. The cells were pipetted and mixed homogeneously. 10 μL cell suspension was taken into a cell counting plate for counting, wherein the cell concentration was adjusted to 10^4 cells/well. To each well of a 96-well plate, except for A1 well as blank control, was added 100 μL of the cell suspension. The 96-well plate was placed in an incubator and cultivated for 24 h. […] The 96-well plate was placed in an incubator and cultivated for 72 h. (3) The culture media containing the compounds in the 96-well plate was removed, and the cells were washed with phosphate buffered solution (PBS) twice. To each well was added 100 μL MTT (tetrazole) (0.5 mg/mL), after placing the plate in an incubator to incubate for 4 h, the MTT solution was removed and 100 μL dimethyl sulfoxide was added. The reaction product of survival cells with MTT, i.e. formazan, was dissolved completely by oscillation on a magnetic oscillator, and then placed into a microplate reader to measure the results, and the IC50 values of compounds could be deduced by Bliss method.

Assay [2] concerns human colon cancer cell HT-29. As to the kind of experiment: In vitro anti-tumor cell activity (MTT), HT-29. The assay is classed as cell-based. The note with it: for IC50: Homo sapiens, read-out: HT-29 IC50. The method, then:
as §1

The test system of assay [3] is human gastric cancer cell MKN-45. As to the kind of experiment: In vitro anti-tumor cell activity (MTT), MKN-45. The class given is cell-based. The note with it: for IC50: Homo sapiens, read-out: MKN-45 IC50. The procedure: as §1
Assay [4] relates to human hepatoma carcinoma cell line SMMC-7721. As to the kind of experiment: In vitro anti-tumor cell activity (MTT), SMMC-7721. The following applies: for IC50: Homo sapiens, read-out: SMMC-7721 IC50. The class given is cell-based. The procedure: as §1
In assay [5] the target is T1, c-Met kinase (His-tagged recombinant human Met (amino acids 974-end)) (Homo sapiens, UniProt P08581).
T1 construct: His-tagged recombinant human Met (amino acids 974-end); His
As to the kind of experiment: c-Met Enzyme Activity Inhibition Assay (ELISA). The assay is classed as biochemical. The following applies: 50 pM c-Met, 5 μM ATP, room temperature 20 min; for IC50: read-out: IC50 for inhibiting c-Met kinase (converted). The procedure: c-Met Enzyme Activity Inhibition Assay
The assay for the determination of c-Met kinase activity is based on an enzyme linked immunosorbant assay (ELISA). A compound of Formula I, 50 pM c-Met (His-tagged recombinant human Met (amino acids 974-end), expressed by baculovirus), and 5 μM ATP in an assay buffer (25 mM MOPS, pH 7.4, 5 mM MgCl2, […], 100 μM sodium orthovanadate, 0.01% Triton X-100, 1 mM DTT, final DMSO concentration 1% (v/v)) were incubated on a plate coated with 0.25 mg/mL POT at room temperature for 20 min. The reaction mixture was removed by washing and the phosphorylated polymer substrate was detected with 0.2 μg/mL phosphotyrosine specific monoclonal antibody (PY20) conjugated to horseradish peroxidase (HRP). After the addition of 1M phosphoric acid to stop the development, the chromogenic substrate (TMB) color was quantitated by spectrophotometry at 450 nm.
Background: An ELISA detects its analyte on a solid surface through an enzyme-linked reagent.

[6] abbreviates: NCI-H460, H460 cells, MTT, 72 h, Bliss method.
The mark [7] stands for this setting: HT-29 cells, MTT, 72 h, Bliss method.
Setting [8] is: MKN-45 cells, MTT, 72 h, Bliss method.
Where [9] appears, read: SMMC-7721 cells, MTT, 72 h, Bliss method.
Setting [10] is: H460 cells, MTT, 72 h, Bliss method.

T1 sequence (P08581 956-1390): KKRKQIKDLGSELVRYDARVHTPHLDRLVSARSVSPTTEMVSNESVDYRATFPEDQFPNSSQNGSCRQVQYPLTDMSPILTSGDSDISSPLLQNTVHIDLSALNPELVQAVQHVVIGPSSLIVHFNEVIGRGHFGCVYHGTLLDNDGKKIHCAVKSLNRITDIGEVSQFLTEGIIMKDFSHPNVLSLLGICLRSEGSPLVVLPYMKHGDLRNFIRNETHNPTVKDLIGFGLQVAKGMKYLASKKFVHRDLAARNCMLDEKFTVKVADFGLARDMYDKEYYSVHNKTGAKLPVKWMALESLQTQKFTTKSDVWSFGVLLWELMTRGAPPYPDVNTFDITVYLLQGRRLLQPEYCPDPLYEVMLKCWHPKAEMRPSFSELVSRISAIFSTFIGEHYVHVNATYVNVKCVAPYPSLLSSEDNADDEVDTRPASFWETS

`COc1cc2c(Oc3ccc(NC(=O)c4nn(-c5ccccc5)c(=O)n(C)c4=O)cc3F)ccnc2cc1OCCCN1CCCC1` [Example 1, N-[3-fluoro-4-[6-methoxy-7-[3-(tetrahydropyrrol-1-yl)propyloxy]quinolin-4-oxy]phenyl]-2-phenyl-4-methyl-3,5-dioxo-2,3,4,5-tetrahydro-1,2,4-triazine-6-carboxamide]: the IC50 (in general, the concentration that gives 50% inhibition) in assay [1] (NCI-H460, 72 h) is 0.26 µg/mL (≈ 0.406 µM); in assay [2] (HT-29, 72 h), 0.12 µg/mL (≈ 0.187 µM); in assay [3] (MKN-45, 72 h), 0.042 µg/mL (≈ 0.0656 µM); in assay [4] (SMMC-7721, 72 h) it was 0.18 µg/mL (≈ 0.281 µM); in assay [5], 71.8 nM.
Regarding `COc1cc2c(Oc3ccc(NC(=O)c4nn(-c5ccccc5)c(=O)n(C)c4=O)cc3F)ccnc2cc1OCCCN1CCOCC1` [Example 3, N-[3-fluoro-4-[6-methoxy-7-[3-(4-morpholinyl)propyloxy]quinolin-4-oxy]phenyl]-2-phenyl-4-methyl-3,5-dioxo-2,3,4,5-tetrahydro-1,2,4-triazine-6-carboxamide], the IC50 in assay [1] (setting [6]) was 0.17 µg/mL (≈ 0.259 µM); in assay [2] (setting [7]), 0.14 µg/mL (≈ 0.213 µM); in assay [3] (setting [8]) it was 0.059 µg/mL (≈ 0.0898 µM); in assay [4] (setting [9]), 0.1 µg/mL (≈ 0.152 µM); in assay [5], 88.3 nM.
Take `COc1cc2c(Oc3ccc(NC(=O)c4nn(-c5ccccc5)c(=O)n(C)c4=O)cc3F)ccnc2cc1OCCCN1CCN(C)CC1` [Example 5, N-[3-fluoro-4-[6-methoxy-7-[3-(4-methyl-1-piperazinyl)propyloxy]oxy]phenyl)-2-phenyl-4-methyl-3,5-dioxo-2,3,4,5-tetrahydro-1,2,4-triazine-6-carboxamide]: the “H460 IC50” value in assay [1] (setting [10]) stood at 0.094 µg/mL. Besides, the “HT-29 IC50” value in assay [2] (setting [7]) came to 0.12 µg/mL. Moreover, in assay [3] (setting [8]), the “MKN-45 IC50” value is 0.12 µg/mL. Further, the “SMMC-7721 IC50” value in assay [4] (setting [9]) turned out to be 0.15 µg/mL. For the same compound, in assay [5], the “IC50 for inhibiting c-Met kinase” value is 0.28 µg/mL.
Regarding `COc1cc2c(Oc3ccc(NC(=O)c4nn(-c5ccc(F)cc5)c(=O)n(C)c4=O)cc3F)ccnc2cc1OCCCN1CCCC1` [Example 6, N-[3-fluoro-4-[6-methoxy-7-[3-(1-pyrrolidyl]propyloxy]quinolin-4-oxy]phenyl]-2-(4-fluorophenyl)-4-methyl-3,5-dioxo-2,3,4,5-tetrahydro-1,2,4-triazine-6-carboxamide], the IC50 in assay [1] (setting [6]) is 0.032 µg/mL (≈ 0.0486 µM); in assay [2] (setting [7]), 0.06 µg/mL (≈ 0.0911 µM); in assay [3] (setting [8]), 0.021 µg/mL (≈ 0.0319 µM); in assay [4] (setting [9]), 0.11 µg/mL (≈ 0.167 µM); in assay [5], 48.6 nM.
In the case of `COc1cc2c(Oc3ccc(NC(=O)c4nn(-c5ccc(Br)cc5)c(=O)n(C)c4=O)cc3F)ccnc2cc1OCCCN1CCCCC1` [Example 7], in assay [1] (setting [10]), the “H460 IC50” value stood at 0.13 µg/mL. For the same compound, in assay [2] (setting [7]), the “HT-29 IC50” value amounted to 0.27 µg/mL. Further, the “MKN-45 IC50” value in assay [3] (setting [8]) turned out to be 0.033 µg/mL. In addition, the “SMMC-7721 IC50” value in assay [4] (setting [9]) was found to be 0.21 µg/mL. Moreover, the “IC50 for inhibiting c-Met kinase” value in assay [5] amounted to 0.048 µg/mL.
`COc1cc2c(Oc3ccc(NC(=O)c4nn(-c5ccc(F)cc5)c(=O)n(C)c4=O)cc3F)ccnc2cc1OCCCN1CCOCC1` [Example 8, N-[3-fluoro-4-[6-methoxy-7-[3-(4-morpholinyl)propyloxy]quinolin-4-oxy]phenyl]-2-(4-fluorophenyl)-4-methyl-3,5-dioxo-2,3,4,5-tetrahydro-1,2,4-triazine-6-carboxamide]: the IC50 in assay [1] (setting [6]) was 0.33 µg/mL (≈ 0.489 µM); in assay [2] (setting [7]), 0.28 µg/mL (≈ 0.415 µM); in assay [3] (setting [8]) it was 0.077 µg/mL (≈ 0.114 µM); in assay [4] (setting [9]), 0.42 µg/mL (≈ 0.623 µM); in assay [5], 623 nM.
In the case of `COc1cc2c(Oc3ccc(NC(=O)c4nn(-c5ccc(F)cc5)c(=O)n(C)c4=O)cc3F)ccnc2cc1OCCCN1CCC(C)CC1` [Example 9, N-[3-fluoro-4-[6-methoxy-7-[3-(4-methyl-1-piperidinyl)propyloxy]quinolin-4-oxy]phenyl]-2-(4-fluorophenyl)-4-methyl-3,5-dioxo-2,3,4,5-tetrahydro-1,2,4-triazine-6-carboxamide], the IC50 is 0.17 µg/mL (≈ 0.248 µM) in assay [1] (setting [6]); 0.21 µg/mL (≈ 0.306 µM) in assay [2] (setting [7]); 0.065 µg/mL (≈ 0.0947 µM) in assay [3] (setting [8]); 0.09 µg/mL (≈ 0.131 µM) in assay [4] (setting [9]); 233 nM in assay [5].
As for `COc1cc2c(Oc3ccc(NC(=O)c4nn(-c5ccc(F)cc5)c(=O)n(C)c4=O)cc3F)ccnc2cc1OCCCN1CCN(C)CC1` [Example 10, N-[3-fluoro-4-[6-methoxy-7-[3-(4-methyl-1-piperazinyl)propyloxy]quinolin-4-oxy]phenyl]-2-(4-fluorophenyl)-4-methyl-3,5-dioxo-2,3,4,5-tetrahydro-1,2,4-triazine-6-carboxamide], the IC50 was 0.0081 µg/mL (≈ 0.0118 µM) in assay [1] (setting [6]); 0.093 µg/mL (≈ 0.135 µM) in assay [2] (setting [7]); 0.0065 µg/mL (≈ 0.00945 µM) in assay [3] (setting [8]); 0.11 µg/mL (≈ 0.16 µM) in assay [4] (setting [9]); 106 nM in assay [5].
Turning to `COc1cc2c(Oc3ccc(NC(=O)c4nn(-c5ccc(C)cc5)c(=O)n(C)c4=O)cc3F)ccnc2cc1OCCCN1CCN(C)CC1` [Example 15, N-[3-fluoro-4-[6-methoxy-7-[3-(4-methyl-1-piperazinyl)propyloxy]quinolin-4-oxy]phenyl]-2-(4-methylphenyl)-4-methyl-3,5-dicarbonyl-2,3,4,5-tetrahydro-1,2,4-triazine-6-carboxamide;], the “H460 IC50” value in assay [1] (setting [10]) was found to be 0.18 µg/mL. For the same compound, the “HT-29 IC50” value in assay [2] (setting [7]) amounted to 0.5 µg/mL. For the same compound, in assay [4] (setting [9]), the “SMMC-7721 IC50” value is 0.79 µg/mL. Also, the “IC50 for inhibiting c-Met kinase” value in assay [5] is 0.009 µg/mL.
Take `COc1cc2c(Oc3ccc(NC(=O)c4nn(-c5ccc(F)c(F)c5)c(=O)n(C)c4=O)cc3F)ccnc2cc1OCCCN1CCCC1` [Example 16, N-[3-fluoro-4-[6-methoxy-7-[3-(1-pyrrolidyl)propyloxy]quinolin-4-oxy]phenyl]-2-(3,4-difluorophenyl)-4-methyl-3,5-dioxo-2,3,4,5-tetrahydro-1,2,4-triazine-6-carboxamide]: the IC50 in assay [1] (setting [6]) was 0.22 µg/mL (≈ 0.325 µM); in assay [2] (setting [7]), 0.3 µg/mL (≈ 0.443 µM); in assay [3] (setting [8]), 0.027 µg/mL (≈ 0.0399 µM); in assay [4] (setting [9]), 0.34 µg/mL (≈ 0.502 µM); in assay [5], 783 nM.
With “N-[3-fluoro-4-[6-methoxy-7-[3-(1-piperidinyl)propyloxy]quinolin-4-oxy]phenyl]-2-(4-methylphenyl)-4-methyl-3,5-dicarbonyl-2,3,4,5-tetrahydro-1,2,4-triazine-6-carboxamide [Example 12]”, the “H460 IC50” value in assay [1] (setting [10]) was found to be 0.12 µg/mL. Moreover, the “HT-29 IC50” value in assay [2] (setting [7]) is 0.11 µg/mL. The “SMMC-7721 IC50” value in assay [4] (setting [9]) is 0.74 µg/mL. The “IC50 for inhibiting c-Met kinase” value in assay [5] was 0.18 µg/mL.
“N-[3-fluoro-4-[6-methoxy-7-[3-(1-piperidinyl)propyloxy]quinolin]-4-oxy]phenyl]-2-phenyl-4-benzyl-3,5-dicarbonyl-2,3,4,5-tetrahydro-1,2,4-triazine-6-carboxamide [Example 46]”: the “H460 IC50” value in assay [1] (setting [10]) is 0.8 µg/mL. Besides, in assay [2] (setting [7]), the “HT-29 IC50” value worked out at 0.3 µg/mL. Also, in assay [3] (setting [8]), the “MKN-45 IC50” value was found to be 0.1 µg/mL. The “SMMC-7721 IC50” value in assay [4] (setting [9]) was 1.4 µg/mL.
With “N-[3-fluoro-4-[6-methoxy-7-[3-(4-morpholinyl)propyloxy]quinolin-4-oxy]phenyl]-2-(4-methylphenyl)-4-methyl-3,5-dicarbonyl-2,3,4,5-tetrahydro-1,2,4-triazine-6-carboxamide [Example 13]”, in assay [1] (setting [10]), the “H460 IC50” value was 0.28 µg/mL. In assay [2] (setting [7]), the “HT-29 IC50” value was determined as 0.19 µg/mL. Further, the “SMMC-7721 IC50” value in assay [4] (setting [9]) was found to be 0.67 µg/mL. The “IC50 for inhibiting c-Met kinase” value in assay [5] was found to be 0.25 µg/mL.
Take “N-[3-fluoro-4-[6-methoxy-7-[3-(4-morpholinyl)propyloxy]quinolin]-4-oxy]phenyl]-2-(2,4-dichlorophenyl)-4-benzyl-3,5-dicarbonyl-2,3,4,5-tetrahydro-1,2,4-triazine-6-carboxamide [Example 43]”: in assay [1] (setting [10]), the “H460 IC50” value was 0.65 µg/mL. In addition, the “HT-29 IC50” value in assay [2] (setting [7]) stood at 0.32 µg/mL. The “MKN-45 IC50” value in assay [3] (setting [8]) worked out at 0.07 µg/mL. For the same compound, the “SMMC-7721 IC50” value in assay [4] (setting [9]) amounted to 1.4 µg/mL.
